Results on seven compounds are retold here after ChEMBL document CHEMBL5465560, “Selectivity Literature for EUbOPEN Chemogenomic Library” (2024).

Assay [1] deals with Glycogen synthase kinase-3 beta (Homo sapiens, UniProt P49841). Put plainly: Selectivity interaction (SelectScreen profiling (Invitrogen)) EUB0000607a GSK3B. Particulars: at 2 µM.
The target of assay [2] is cAMP-dependent protein kinase catalytic subunit alpha (Homo sapiens, UniProt P17612). Put plainly: Selectivity interaction (KinomeScan (DiscoverX)) EUB0001079a PRKACA. To be noted: at 1 µM.
Assay [3] deals with Epidermal growth factor receptor (Homo sapiens, UniProt P00533). Description: Selectivity interaction (Kinase panel (Invitrogen)) EUB0000639a EGFR. Particulars: at 200 nM.
Chain of Epidermal growth factor receptor (P00533 whole entry): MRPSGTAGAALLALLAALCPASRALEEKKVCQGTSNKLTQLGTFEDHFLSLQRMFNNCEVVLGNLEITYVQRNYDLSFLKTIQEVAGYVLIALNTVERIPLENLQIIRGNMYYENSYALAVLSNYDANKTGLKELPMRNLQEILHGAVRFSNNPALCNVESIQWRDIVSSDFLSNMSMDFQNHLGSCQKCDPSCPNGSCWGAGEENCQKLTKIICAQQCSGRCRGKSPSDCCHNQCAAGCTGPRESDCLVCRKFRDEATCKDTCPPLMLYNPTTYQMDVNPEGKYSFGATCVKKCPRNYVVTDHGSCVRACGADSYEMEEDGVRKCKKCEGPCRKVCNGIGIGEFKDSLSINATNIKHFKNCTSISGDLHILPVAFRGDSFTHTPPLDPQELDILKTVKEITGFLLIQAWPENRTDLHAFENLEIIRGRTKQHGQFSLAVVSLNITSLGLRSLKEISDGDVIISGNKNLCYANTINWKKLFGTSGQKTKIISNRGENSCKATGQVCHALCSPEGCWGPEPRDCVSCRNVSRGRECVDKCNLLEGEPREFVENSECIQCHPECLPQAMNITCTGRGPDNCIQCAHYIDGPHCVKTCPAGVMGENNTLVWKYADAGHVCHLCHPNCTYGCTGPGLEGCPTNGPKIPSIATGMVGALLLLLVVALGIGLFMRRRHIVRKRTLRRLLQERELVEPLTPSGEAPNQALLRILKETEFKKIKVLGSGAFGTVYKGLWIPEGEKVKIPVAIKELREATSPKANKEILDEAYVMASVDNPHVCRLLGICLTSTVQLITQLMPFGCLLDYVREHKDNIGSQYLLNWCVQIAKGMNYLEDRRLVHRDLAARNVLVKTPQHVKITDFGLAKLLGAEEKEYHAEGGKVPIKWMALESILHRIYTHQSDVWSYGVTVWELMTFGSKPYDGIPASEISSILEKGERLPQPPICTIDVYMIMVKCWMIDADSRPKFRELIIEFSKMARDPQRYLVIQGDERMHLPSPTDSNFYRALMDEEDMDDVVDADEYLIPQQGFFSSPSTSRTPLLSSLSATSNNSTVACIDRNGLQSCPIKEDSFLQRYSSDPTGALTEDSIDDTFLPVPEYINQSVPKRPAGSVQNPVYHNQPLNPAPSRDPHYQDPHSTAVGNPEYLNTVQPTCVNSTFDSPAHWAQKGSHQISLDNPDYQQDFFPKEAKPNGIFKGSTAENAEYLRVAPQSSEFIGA
Assay [4] addresses T1, Serine/threonine-protein kinase 17A (Homo sapiens) (UniProt Q9UEE5).
T1 sequence (whole entry): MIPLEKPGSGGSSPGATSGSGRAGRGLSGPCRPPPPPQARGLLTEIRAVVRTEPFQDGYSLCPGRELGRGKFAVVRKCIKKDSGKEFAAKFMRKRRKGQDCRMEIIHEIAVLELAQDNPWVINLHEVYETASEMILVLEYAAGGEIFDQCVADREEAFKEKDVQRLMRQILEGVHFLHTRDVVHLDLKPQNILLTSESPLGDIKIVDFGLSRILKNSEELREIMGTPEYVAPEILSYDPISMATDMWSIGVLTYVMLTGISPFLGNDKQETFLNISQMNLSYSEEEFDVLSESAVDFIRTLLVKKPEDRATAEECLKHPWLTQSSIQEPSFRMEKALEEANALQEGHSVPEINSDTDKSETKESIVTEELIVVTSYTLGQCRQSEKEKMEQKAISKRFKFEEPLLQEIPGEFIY
Put plainly: Selectivity interaction (Kinase panel (Invitrogen)) EUB0000639a STK17A. Particulars: at 200 nM.

Assay [5] concerns the target Serine/threonine-protein kinase SBK1 (Homo sapiens) (UniProt Q52WX2). Description: Selectivity interaction (KinomeScan (DiscoverX)) EUB0001049a SBK1. To be noted: at 1 µM.
The target of assay [6] is Ribosomal protein S6 kinase alpha-1 (Homo sapiens, UniProt Q15418). Put plainly: Selectivity interaction (KinomeScan (DiscoverX)) EUB0000695a RPS6KA1. To be noted: at 100 nM.
Chain of Ribosomal protein S6 kinase alpha-1 (Q15418 whole entry): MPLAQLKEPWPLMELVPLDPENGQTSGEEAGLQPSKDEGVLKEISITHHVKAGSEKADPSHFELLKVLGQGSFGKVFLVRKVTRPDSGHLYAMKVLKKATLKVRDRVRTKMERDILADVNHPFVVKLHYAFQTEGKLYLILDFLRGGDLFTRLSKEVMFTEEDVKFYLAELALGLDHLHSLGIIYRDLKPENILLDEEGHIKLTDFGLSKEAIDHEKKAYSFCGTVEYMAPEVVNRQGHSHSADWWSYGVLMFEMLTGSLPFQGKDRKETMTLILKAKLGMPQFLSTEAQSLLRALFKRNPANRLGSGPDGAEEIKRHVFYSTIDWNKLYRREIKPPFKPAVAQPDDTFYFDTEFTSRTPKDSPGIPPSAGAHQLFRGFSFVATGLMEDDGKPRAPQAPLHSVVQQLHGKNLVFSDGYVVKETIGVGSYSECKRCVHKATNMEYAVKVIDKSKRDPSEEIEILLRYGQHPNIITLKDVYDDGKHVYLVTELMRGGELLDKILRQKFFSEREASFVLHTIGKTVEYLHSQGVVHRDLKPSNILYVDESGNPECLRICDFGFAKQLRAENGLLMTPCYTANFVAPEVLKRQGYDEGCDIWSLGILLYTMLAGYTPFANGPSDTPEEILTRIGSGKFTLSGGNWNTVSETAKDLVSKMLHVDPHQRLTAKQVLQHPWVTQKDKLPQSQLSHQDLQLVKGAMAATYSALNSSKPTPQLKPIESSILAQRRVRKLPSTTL
Assay [7] deals with Epidermal growth factor receptor (Homo sapiens), P00533 [UNDEFINED MUTATION]. Put plainly: Selectivity interaction (ProQinase) EUB0000171b EGFR. To be noted: at 5 µM.
Chain of Epidermal growth factor receptor (Homo sapiens), P00533 [UNDEFINED MUTATION] (P00533 whole entry, looked up, change not shown): as the sequence (P00533 whole entry) above
In assay [8] the target is T2, Cyclin-dependent kinase 11A (Homo sapiens) (UniProt Q9UQ88).
T2 sequence (whole entry): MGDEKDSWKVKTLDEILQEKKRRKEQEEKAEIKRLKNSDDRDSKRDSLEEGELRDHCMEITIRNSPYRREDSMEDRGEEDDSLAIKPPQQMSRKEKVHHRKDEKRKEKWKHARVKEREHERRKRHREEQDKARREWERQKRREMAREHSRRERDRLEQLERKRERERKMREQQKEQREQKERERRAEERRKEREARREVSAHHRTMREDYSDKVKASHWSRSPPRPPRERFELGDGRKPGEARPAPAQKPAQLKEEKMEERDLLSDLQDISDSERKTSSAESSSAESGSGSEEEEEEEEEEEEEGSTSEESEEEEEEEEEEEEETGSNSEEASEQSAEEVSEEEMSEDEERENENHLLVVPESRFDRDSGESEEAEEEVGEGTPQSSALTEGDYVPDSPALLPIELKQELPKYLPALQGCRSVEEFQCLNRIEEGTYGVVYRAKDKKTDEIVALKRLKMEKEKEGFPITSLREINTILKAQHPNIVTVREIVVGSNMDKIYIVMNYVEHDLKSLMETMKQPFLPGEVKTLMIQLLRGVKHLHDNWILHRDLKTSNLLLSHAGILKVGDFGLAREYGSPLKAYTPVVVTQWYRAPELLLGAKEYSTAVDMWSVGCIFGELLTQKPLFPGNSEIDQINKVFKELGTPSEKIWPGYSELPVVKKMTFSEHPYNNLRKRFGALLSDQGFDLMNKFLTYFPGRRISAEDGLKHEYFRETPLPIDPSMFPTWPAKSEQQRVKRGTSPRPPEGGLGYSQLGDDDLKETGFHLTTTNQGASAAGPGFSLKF
Put plainly: Selectivity interaction (KinomeScan (DiscoverX)) EUB0000045b CDK11A. To be noted: at 10 µM.

Assay [9] concerns the target T3, Cyclin-G-associated kinase (Homo sapiens) (UniProt O14976).
T3 sequence (whole entry): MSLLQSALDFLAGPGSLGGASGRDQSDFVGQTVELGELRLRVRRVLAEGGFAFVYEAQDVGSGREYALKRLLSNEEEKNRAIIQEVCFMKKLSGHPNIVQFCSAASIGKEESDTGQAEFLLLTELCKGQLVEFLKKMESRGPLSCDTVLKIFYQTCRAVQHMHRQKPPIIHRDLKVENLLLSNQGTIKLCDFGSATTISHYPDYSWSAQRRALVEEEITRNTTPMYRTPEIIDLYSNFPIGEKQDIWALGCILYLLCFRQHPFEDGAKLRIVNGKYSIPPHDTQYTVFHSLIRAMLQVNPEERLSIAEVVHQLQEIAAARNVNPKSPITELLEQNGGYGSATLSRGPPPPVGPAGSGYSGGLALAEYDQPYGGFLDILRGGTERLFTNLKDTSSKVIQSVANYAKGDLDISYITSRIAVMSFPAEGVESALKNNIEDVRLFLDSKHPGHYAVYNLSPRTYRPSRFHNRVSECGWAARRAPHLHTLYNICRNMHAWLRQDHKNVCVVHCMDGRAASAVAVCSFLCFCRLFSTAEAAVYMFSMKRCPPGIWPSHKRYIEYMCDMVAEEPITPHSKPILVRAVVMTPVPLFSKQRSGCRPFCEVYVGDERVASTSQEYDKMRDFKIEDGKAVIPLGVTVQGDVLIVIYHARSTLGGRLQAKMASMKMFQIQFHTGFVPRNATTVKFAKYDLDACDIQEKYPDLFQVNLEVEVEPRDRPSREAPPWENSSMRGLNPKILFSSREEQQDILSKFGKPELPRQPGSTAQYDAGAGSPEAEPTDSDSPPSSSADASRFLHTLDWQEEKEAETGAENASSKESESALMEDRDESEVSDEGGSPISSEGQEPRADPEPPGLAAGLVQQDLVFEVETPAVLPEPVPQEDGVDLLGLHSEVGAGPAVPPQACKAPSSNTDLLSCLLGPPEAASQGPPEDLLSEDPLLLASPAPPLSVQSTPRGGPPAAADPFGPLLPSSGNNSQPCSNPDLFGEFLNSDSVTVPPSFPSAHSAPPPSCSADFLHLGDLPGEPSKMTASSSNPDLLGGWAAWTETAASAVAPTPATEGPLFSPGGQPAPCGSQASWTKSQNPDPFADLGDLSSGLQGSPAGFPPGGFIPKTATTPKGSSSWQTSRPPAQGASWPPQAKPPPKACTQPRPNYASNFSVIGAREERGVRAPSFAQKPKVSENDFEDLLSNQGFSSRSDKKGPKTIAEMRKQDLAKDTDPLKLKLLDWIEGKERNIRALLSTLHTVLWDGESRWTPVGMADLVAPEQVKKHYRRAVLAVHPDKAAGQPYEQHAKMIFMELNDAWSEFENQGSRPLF
Description: Selectivity interaction (KinomeScan (DiscoverX)) EUB0000045b GAK.

Chain of Serine/threonine-protein kinase SBK1 (Homo sapiens) (Q52WX2 whole entry): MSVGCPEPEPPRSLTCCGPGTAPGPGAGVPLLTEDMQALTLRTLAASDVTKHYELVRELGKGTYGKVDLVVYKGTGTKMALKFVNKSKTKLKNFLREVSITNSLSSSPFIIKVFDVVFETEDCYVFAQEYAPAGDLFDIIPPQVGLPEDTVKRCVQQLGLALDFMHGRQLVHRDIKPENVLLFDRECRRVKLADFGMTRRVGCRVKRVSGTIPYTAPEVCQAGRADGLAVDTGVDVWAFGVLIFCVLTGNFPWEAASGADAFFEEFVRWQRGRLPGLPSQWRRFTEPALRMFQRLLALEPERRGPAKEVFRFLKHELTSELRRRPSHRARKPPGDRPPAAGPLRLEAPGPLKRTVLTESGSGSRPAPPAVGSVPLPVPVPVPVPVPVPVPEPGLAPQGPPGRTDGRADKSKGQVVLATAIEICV
Chain of Glycogen synthase kinase-3 beta (P49841 whole entry, looked up): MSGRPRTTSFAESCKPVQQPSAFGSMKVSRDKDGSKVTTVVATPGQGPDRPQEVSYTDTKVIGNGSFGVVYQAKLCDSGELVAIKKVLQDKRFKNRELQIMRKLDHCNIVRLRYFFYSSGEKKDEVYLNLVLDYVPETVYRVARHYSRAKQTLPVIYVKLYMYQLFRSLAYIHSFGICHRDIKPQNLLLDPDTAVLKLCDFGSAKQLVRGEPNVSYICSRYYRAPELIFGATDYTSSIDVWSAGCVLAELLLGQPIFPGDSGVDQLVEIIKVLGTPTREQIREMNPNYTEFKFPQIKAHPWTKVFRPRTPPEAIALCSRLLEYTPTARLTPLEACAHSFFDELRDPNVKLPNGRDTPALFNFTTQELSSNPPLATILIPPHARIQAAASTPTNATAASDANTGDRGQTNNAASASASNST

As to `CNC(=O)Nc1ccc(-c2nc(N3CC4CCC(C3)O4)c3cnn(C4CCC5(CC4)OCCO5)c3n2)cc1`, the % of inhibition in assay [1] was 1%.
As to `Nc1cnc(N2CCc3cc(S(=O)(=O)Nc4c(F)cc(Cl)cc4F)cc(N4CCCC4=O)c32)nc1` [TP-020n], in [2], the % of control worked out at 100%.
Turning to `CC[C@@H]1[C@H](F)C(=O)N[C@@H]1COc1nccc2cc(C(N)=O)c(OC)cc12` [ZIMLOVISERTIB], the % of inhibition in assay [3] worked out at 17%; in [4] it was 56.9%.
In [5], `COc1cc(Nc2nc(C)cc(-c3cnn4nc(OC)ccc34)n2)cc(C(F)(F)F)c1` showed a % of control of 87%.
With `Cc1cc(F)c(C(=O)Nc2cccc(-c3nncn3C(C)C)n2)cc1-n1cnc(C2CC2)c1`, the % of control in assay [6] came to 88%.
`C=CC(=O)Nc1cccc(C(=O)Nc2ccc(Nc3cc(-c4[nH]c(SC)nc4C)ccn3)cc2)c1` yielded a % of control in assay [7] of 101%.
On to `C=CC(=O)Nc1cc(-n2c(=O)ccc3cnc4ccc(-c5ccc(NS(C)(=O)=O)cc5)cc4c32)ccc1C`, for which the % of control in [8] is 100%; in [9] (at 1 µM), 74%; in assay [9] (at 10 µM) it was 23%.
